Data as given in US11253515B2, “Pharmaceutical compositions and dosage forms” (IGNYTA, INC., priority 2017, dated 2022).

How the values were obtained:
[1] = Excipient compatibility of 1:1 acid admixtures, HPLC after three months storage; format: physicochemical; conditions: 1:1 weight ratio dry powder mixture, open vial
Procedure: (§1) The mixtures were prepared in duplicate for each sample, and stored in open top, 4 mL glass vials at (1) 60° C./dry heat and (2) 40° C. and 75% relative humidity (RH).
The HPLC traces analyses were conducted on an Agilent 1100 LC, equipped with Agilent Diode Array Detector and Chemstation Software using the conditions found in the table below.

TrkC = TrkC (Homo sapiens, UniProt Q16288); conditions: background statement; cited from earlier work
[2] = human, in vivo
TrkB = TrkB (Homo sapiens, UniProt Q16620); conditions: background statement; cited from earlier work
[3] = Physical state and moisture uptake of 1:1 acid admixtures on storage; format: physicochemical; conditions: 40° C. and 75% RH, open top vial
Procedure: as §1
All admixture samples and the control samples stored at the 60° C. and dry heat condition remained as dry powders.

[4] = molecular target: anaplastic lymphoma kinase (ALK) (Homo sapiens, UniProt Q9UM73); conditions: background statement; cited from earlier work
[5] = Comparative pharmacokinetic study of F1 and F2 with lansoprazole (Example 12); format: in vivo, human; conditions: 800 mg fixed dose, 23 healthy subjects, body weights 55 to 106 kg
Procedure: A comparative pharmacokinetic study in healthy, human subjects was conducted comparing a 200 mg dosage strength of pharmaceutical composition F1 (as described in Example 11) with a 200 mg dosage strength pharmaceutical composition F2 (as described in Example 10).
Pharmaceutical compositions F1 and F2, along with and lansoprazole, were administered orally with approximately 240 mL of water, according to the randomization scheme. Lansoprazole was administered as 30 mg lansoprazole delayed-release capsules.
Subjects were randomized into two groups, A and B. Periods 1 and 2 were conducted as a crossover design under fasting conditions where all subjects received F1 and F2. […] A representative summary of Periods 1, 2, and 3 and the pharmaceutical compositions subjects in groups A and B will receive in each Period is found below.
Lansoprazole administration on days 1 to 9 was conducted in the morning, approximately 1.5 hours prior to administration of either F1 or F2 at hour 0 on day 4.
Subjects were randomized and received 3 out of 4 treatments in one of the following sequences: […] (i.e., Periods 1 and 2 were conducted as a crossover design under fasting conditions [Treatments A and B]). […] Each subject received each of the 3 assigned treatments on one occasion.
Treatments A and C utilized 200 mg strength F1 capsules.
Treatments B and D utilized 200 mg F2 capsules. […]

[6] = Single-dose food effect study in dogs; format: in vivo; conditions: formulation that did not comprise at least one acidulant
Description: Such food effects can cause difficulty during human testing of drugs as the fed or fasted condition of the patient can cause exposure or bioavailability of drugs to vary widely.

[7] = three months at 60° C. Dry Heat

Sequence of anaplastic lymphoma kinase (ALK) (Q9UM73 19-1620): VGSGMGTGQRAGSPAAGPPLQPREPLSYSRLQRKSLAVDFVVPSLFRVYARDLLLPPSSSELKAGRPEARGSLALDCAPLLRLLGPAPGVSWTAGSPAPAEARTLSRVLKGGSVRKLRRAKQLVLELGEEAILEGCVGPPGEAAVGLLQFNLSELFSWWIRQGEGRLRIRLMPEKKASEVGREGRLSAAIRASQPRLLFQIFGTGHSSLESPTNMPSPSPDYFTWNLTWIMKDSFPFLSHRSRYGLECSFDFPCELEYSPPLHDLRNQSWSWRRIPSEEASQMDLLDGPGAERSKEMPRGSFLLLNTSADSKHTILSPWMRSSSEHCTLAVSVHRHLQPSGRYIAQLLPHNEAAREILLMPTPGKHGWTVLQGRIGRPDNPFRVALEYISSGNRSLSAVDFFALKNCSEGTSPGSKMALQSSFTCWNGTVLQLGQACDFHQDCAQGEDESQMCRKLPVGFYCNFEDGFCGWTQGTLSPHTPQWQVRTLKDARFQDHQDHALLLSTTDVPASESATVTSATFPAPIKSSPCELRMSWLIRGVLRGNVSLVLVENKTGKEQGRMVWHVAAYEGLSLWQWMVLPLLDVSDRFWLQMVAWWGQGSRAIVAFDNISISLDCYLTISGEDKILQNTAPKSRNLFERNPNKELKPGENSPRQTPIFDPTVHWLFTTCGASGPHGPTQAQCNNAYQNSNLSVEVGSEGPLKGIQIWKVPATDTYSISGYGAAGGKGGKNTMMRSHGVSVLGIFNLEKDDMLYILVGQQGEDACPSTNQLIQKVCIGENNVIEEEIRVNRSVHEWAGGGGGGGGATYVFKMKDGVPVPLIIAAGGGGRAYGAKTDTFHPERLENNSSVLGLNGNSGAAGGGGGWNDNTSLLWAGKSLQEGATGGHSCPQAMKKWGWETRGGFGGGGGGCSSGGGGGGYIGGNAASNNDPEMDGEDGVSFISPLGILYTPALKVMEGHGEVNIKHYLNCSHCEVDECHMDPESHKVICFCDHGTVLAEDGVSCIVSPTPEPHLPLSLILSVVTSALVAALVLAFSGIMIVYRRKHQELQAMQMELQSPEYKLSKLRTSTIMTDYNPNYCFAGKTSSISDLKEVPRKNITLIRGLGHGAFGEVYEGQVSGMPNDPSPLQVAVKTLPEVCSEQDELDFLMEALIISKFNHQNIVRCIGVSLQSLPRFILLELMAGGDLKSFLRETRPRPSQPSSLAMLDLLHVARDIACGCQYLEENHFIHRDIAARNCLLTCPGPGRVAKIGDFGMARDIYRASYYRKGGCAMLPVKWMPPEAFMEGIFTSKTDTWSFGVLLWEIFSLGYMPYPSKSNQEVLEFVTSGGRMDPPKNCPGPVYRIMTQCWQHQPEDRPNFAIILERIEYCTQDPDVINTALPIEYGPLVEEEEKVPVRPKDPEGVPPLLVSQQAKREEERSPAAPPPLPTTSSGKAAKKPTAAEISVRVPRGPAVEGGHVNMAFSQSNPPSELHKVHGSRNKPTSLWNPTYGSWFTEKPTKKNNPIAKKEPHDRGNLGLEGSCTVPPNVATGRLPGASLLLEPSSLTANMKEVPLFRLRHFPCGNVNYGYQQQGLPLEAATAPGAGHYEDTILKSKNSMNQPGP
Sequence of TrkC (Q16288 32-839): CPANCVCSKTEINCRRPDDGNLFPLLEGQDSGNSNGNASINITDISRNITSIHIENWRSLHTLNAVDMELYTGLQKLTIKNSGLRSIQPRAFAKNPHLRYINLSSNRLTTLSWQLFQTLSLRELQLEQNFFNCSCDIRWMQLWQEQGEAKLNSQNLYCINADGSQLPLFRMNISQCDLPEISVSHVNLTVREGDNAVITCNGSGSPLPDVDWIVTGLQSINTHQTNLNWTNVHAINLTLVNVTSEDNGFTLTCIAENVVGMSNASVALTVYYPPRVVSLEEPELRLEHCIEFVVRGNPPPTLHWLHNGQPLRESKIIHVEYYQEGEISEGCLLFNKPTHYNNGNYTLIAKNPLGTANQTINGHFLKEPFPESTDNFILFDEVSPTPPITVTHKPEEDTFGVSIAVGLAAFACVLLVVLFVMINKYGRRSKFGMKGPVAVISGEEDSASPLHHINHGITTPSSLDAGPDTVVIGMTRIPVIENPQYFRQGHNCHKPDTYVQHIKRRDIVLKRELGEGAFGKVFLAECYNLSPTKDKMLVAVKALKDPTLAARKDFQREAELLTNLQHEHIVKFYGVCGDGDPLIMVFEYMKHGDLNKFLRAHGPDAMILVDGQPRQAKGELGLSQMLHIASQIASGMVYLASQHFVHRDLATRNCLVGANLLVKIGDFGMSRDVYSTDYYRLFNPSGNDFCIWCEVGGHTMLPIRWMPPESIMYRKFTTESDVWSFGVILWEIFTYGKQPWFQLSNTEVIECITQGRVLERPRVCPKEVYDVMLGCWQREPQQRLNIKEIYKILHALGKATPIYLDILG
Sequence of TrkB (Q16620 32-822): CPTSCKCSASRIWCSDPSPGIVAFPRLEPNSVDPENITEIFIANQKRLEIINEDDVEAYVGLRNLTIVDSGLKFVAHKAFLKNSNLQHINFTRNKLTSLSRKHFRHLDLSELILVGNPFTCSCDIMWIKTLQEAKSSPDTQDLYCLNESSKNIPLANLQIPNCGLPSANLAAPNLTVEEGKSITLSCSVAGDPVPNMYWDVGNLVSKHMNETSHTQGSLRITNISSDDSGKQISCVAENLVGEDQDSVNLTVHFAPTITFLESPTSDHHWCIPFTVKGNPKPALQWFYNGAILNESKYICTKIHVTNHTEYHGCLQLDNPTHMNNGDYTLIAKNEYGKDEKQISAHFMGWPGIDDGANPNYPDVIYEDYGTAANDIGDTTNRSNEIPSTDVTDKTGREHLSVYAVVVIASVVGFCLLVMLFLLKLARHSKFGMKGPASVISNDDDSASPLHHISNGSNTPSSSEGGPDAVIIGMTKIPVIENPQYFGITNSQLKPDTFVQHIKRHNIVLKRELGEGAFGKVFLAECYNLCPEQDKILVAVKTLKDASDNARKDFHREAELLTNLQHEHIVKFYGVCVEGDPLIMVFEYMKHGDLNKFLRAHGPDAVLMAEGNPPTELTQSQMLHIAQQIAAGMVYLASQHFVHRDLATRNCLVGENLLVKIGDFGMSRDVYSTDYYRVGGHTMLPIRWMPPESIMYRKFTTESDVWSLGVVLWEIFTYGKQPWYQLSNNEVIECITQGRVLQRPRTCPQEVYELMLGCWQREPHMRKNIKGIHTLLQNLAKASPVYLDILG

CN1CCN(c2ccc(C(=O)Nc3n[nH]c4ccc(Cc5cc(F)cc(F)c5)cc34)c(NC3CCOCC3)c2)CC1 [N-[5-(3,5-difluorobenzyl)-1H-indazol-3-yl]-4-(4-methyl-piperazin-1-yl)-2-(tetrahydro-pyran-4-ylamino)-benzamide]
% UV Purity ([1]; three months at 40° C./75% RH): 99.2%
Most abundant impurity (area %) ([1]; three months at 40° C./75% RH, listed as Control): 0.13%
Most abundant impurity (area %) ([1]; three months at 40° C./75% RH, listed as control): 0.13%
% UV Purity [1, 7]: 99.3%
Most abundant impurity (area %) [1, 7]: 0.13%
inhibition of tyrosine kinase (TrkC): potent inhibitor
exposures with concomitant proton pump inhibitor drugs (PPIs), such as lansoprazole [2]: variable
AUC higher when taken with food ([2]; 400 mg/m2): ~50%
Cmax higher with food ([2]; 400 mg/m2): approximately 150%
inhibition of tyrosine kinase (TrkB): potent inhibitor
physical state after 13 days of storage [3]: remained dry
inhibition of tyrosine kinase [4]: potent inhibitor
correlation of total exposure with body weight or body surface area [5]: did not correlate with body weight or body surface area
exposure levels under fed conditions compared to fasting conditions [6]: approximately 2 fold
